Experimental data reported in ChEMBL document CHEMBL1142810, “Discovery of a potent and selective 5-ht5A receptor antagonist by high-throughput chemistry” (Bioorg Med Chem Lett, 2005).

Key:
[1] = target: 5-hydroxytryptamine receptor 5A (Homo sapiens, UniProt P47898); experiment: Binding affinity towards human 5-hydroxytryptamine receptor 5A expressed in CHO cells using the radioligand [3H]LSD; type: cell-based
D(3) dopamine receptor = D(3) dopamine receptor (Homo sapiens, UniProt P35462); experiment: Binding affinity towards human dopamine receptor D3 expressed in CHO cells using the radioligand [125I]iodosulpiride; type: cell-based
D(2) dopamine receptor = D(2) dopamine receptor (Homo sapiens, UniProt P14416); experiment: Binding affinity towards human dopamine receptor D2 expressed in CHO cells using the radioligand [125I]iodosulpiride; type: cell-based
[2] = target: 5-hydroxytryptamine receptor 7 (Homo sapiens, UniProt P34969); experiment: Binding affinity towards human 5-hydroxytryptamine receptor 7 expressed in HEK 293 cells using the radioligand [3H]5-CT; type: cell-based, HEK293
[3] = target: 5-hydroxytryptamine receptor 2A (Homo sapiens, UniProt P28223); experiment: Binding affinity towards human 5-hydroxytryptamine receptor 2A expressed in HEK 293 cells using the radioligand [3H]ketanserin; type: cell-based, HEK293
[4] = target: 5-hydroxytryptamine receptor 1E (Homo sapiens, UniProt P28566); experiment: Binding affinity towards human 5-hydroxytryptamine receptor 1E expressed in HEK 293 cells using the radioligand [3H]5-HT; type: cell-based, HEK293
[5] = target: 5-hydroxytryptamine receptor 2B (Homo sapiens, UniProt P41595); experiment: Binding affinity towards human 5-hydroxytryptamine receptor 2B expressed in HEK 293 cells using the radioligand [3H]5-HT; type: cell-based, HEK293
[6] = target: T1, Alpha-1B adrenergic receptor (Homo sapiens, UniProt P35368); experiment: Binding affinity towards human alpha-1B-adrenergic receptor expressed in CHO cells using the radioligand [3H]prazosin; type: cell-based
T1 sequence (P35368 whole entry): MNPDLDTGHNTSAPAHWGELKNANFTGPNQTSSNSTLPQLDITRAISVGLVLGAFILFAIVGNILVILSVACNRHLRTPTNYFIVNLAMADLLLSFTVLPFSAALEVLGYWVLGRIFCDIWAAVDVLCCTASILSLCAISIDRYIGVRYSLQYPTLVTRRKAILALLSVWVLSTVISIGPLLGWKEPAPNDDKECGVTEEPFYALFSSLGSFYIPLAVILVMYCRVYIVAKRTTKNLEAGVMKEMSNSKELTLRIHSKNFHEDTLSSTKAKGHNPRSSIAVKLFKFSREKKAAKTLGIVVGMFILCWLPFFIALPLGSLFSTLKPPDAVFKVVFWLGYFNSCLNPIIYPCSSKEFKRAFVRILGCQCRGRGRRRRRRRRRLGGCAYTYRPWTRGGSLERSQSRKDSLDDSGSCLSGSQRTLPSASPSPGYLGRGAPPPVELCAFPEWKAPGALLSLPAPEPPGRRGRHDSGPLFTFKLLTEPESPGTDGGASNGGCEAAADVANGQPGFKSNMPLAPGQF

[7] = target: T2, 5-hydroxytryptamine receptor 2C (Homo sapiens, UniProt P28335); experiment: Binding affinity towards human 5-hydroxytryptamine receptor 2C expressed in HEK 293 cells using the radioligand [3H]mesulergine; type: cell-based, HEK293
T2 sequence (P28335 whole entry): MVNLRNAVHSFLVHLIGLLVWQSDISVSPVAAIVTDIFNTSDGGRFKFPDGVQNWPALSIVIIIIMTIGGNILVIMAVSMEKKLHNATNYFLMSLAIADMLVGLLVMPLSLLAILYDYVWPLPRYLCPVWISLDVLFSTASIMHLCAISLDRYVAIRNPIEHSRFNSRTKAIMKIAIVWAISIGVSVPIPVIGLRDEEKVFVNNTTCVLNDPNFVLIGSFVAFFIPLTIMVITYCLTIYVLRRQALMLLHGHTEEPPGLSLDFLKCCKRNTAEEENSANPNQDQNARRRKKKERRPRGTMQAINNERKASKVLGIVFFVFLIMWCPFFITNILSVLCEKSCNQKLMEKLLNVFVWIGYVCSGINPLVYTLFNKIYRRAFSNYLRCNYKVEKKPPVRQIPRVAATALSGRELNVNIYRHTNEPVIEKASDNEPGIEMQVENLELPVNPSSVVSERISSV

[8] = target: 5-hydroxytryptamine receptor 1D (Homo sapiens, UniProt P28221); experiment: Binding affinity towards human 5-hydroxytryptamine receptor 1D expressed in CHO cells using the radioligand [3H]5-HT; type: cell-based
[9] = target: 5-hydroxytryptamine receptor 6 (Homo sapiens, UniProt P50406); experiment: Binding affinity towards human 5-hydroxytryptamine receptor 6 expressed in HeLa cells using the radioligand [3H]LSD; type: cell-based
[10] = target: T3, 5-hydroxytryptamine receptor 1F (Homo sapiens, UniProt P30939); experiment: Binding affinity towards human 5-hydroxytryptamine receptor 1F expressed in HEK 293 cells using the radioligand [3H]5-HT; type: cell-based, HEK293
T3 sequence (P30939 whole entry): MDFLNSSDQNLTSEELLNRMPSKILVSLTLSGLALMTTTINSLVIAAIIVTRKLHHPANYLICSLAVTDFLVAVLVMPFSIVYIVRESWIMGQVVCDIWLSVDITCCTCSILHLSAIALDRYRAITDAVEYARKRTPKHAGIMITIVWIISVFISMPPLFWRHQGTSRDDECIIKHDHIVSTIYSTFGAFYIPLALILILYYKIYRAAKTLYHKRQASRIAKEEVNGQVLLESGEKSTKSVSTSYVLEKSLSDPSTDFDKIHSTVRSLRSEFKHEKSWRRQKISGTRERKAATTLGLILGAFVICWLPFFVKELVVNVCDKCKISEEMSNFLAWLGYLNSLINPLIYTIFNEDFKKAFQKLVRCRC

D(4) dopamine receptor = target: T4, D(4) dopamine receptor (Homo sapiens, UniProt P21917); experiment: Binding affinity towards human dopamine receptor D4 expressed in CHO cells using the radioligand [125I]iodosulpiride; type: cell-based
T4 sequence (P21917 whole entry): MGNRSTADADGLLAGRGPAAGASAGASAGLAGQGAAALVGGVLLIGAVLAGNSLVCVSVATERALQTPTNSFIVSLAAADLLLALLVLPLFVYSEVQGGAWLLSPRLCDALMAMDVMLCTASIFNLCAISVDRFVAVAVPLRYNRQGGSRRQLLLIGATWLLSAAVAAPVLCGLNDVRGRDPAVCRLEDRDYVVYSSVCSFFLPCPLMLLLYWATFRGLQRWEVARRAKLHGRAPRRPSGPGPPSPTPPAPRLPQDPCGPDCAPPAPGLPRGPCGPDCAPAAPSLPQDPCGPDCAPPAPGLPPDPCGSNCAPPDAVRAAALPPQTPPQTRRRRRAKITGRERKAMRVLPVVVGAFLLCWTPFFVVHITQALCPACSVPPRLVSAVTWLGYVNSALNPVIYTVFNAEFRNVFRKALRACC

[11] = target: 5-hydroxytryptamine receptor 1B (Homo sapiens, UniProt P28222); experiment: Binding affinity towards human 5-hydroxytryptamine receptor 1B expressed in CHO cells using the radioligand [3H]5-HT; type: cell-based
[12] = target: T5, 5-hydroxytryptamine receptor 1A (Homo sapiens, UniProt P08908); experiment: Binding affinity towards human 5-hydroxytryptamine receptor 1A expressed in HEK 293 cells using the radioligand [3H]8-OH-DPAT; type: cell-based, HEK293
T5 sequence (P08908 whole entry): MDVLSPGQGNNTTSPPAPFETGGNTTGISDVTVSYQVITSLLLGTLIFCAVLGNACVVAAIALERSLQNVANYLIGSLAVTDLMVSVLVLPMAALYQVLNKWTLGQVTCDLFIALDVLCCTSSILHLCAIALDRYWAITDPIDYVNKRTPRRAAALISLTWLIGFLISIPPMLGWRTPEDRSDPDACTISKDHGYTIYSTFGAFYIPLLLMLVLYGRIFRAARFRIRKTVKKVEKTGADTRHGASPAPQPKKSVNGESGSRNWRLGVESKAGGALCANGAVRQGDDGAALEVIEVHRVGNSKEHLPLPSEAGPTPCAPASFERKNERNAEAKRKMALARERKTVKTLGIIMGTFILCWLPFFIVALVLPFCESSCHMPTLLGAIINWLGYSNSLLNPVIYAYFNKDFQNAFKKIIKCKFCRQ

Chain of 5-hydroxytryptamine receptor 5A (P47898 whole entry): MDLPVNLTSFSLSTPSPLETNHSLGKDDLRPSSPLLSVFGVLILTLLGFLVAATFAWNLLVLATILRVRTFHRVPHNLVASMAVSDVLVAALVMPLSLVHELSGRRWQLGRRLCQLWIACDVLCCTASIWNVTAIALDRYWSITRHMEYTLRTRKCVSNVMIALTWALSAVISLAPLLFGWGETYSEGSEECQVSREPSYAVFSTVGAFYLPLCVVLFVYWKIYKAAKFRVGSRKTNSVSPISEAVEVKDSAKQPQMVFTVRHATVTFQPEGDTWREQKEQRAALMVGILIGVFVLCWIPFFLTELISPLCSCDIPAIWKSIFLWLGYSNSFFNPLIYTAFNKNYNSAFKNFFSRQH
Chain of 5-hydroxytryptamine receptor 6 (P50406 whole entry): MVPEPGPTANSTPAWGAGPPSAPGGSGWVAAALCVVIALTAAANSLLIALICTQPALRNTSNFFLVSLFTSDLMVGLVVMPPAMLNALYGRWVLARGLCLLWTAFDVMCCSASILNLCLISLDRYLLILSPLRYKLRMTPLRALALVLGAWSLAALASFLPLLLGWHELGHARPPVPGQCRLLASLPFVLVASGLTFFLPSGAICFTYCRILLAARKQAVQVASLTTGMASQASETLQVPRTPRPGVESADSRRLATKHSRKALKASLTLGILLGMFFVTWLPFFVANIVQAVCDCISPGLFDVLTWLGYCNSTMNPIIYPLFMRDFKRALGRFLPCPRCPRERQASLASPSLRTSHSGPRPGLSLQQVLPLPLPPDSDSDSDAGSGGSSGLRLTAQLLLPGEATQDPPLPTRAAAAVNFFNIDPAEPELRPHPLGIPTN
Chain of 5-hydroxytryptamine receptor 1B (P28222 whole entry): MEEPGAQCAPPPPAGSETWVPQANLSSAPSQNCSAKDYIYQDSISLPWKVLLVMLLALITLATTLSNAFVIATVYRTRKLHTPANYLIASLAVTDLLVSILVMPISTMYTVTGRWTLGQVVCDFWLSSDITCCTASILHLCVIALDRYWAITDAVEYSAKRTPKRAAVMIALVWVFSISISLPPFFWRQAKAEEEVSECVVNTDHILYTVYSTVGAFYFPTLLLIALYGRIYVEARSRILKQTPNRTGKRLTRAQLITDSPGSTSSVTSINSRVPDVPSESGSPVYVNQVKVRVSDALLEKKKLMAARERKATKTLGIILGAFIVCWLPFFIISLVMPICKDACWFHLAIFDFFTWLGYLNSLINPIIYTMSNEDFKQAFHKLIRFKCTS
Chain of 5-hydroxytryptamine receptor 2B (P41595 whole entry): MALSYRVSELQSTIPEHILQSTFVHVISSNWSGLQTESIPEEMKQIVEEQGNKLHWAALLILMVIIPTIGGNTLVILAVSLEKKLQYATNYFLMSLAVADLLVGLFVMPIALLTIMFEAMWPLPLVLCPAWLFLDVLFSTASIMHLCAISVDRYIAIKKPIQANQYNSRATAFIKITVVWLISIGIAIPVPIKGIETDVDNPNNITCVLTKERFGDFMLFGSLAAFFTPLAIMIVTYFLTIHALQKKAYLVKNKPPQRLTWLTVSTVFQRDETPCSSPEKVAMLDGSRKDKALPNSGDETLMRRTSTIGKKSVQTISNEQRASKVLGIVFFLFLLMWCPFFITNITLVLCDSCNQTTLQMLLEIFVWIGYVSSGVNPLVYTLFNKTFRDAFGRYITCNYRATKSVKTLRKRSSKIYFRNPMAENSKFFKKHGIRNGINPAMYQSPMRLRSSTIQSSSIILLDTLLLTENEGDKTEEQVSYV
Chain of D(3) dopamine receptor (P35462 whole entry): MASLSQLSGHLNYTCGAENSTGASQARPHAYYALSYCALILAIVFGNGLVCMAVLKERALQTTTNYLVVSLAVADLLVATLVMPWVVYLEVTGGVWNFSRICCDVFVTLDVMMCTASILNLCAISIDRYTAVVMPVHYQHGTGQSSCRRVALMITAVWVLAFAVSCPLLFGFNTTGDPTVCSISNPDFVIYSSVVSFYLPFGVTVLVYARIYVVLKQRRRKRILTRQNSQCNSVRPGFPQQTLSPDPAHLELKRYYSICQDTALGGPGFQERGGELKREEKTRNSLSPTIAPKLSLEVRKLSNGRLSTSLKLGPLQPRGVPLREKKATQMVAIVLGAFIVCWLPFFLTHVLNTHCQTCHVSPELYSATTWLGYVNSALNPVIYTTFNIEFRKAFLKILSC
Chain of D(2) dopamine receptor (P14416 whole entry): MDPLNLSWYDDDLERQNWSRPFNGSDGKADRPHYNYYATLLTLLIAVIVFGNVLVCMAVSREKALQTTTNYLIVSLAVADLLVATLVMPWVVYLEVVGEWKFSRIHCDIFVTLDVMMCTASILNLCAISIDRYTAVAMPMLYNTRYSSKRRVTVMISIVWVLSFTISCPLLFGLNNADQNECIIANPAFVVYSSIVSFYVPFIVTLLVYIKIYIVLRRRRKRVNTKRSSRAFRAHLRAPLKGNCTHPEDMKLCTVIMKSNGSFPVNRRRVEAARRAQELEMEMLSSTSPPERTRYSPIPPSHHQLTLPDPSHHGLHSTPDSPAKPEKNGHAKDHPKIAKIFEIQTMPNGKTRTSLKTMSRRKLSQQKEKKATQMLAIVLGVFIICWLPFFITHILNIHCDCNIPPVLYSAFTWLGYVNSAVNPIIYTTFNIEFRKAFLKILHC
Chain of 5-hydroxytryptamine receptor 2A (P28223 whole entry): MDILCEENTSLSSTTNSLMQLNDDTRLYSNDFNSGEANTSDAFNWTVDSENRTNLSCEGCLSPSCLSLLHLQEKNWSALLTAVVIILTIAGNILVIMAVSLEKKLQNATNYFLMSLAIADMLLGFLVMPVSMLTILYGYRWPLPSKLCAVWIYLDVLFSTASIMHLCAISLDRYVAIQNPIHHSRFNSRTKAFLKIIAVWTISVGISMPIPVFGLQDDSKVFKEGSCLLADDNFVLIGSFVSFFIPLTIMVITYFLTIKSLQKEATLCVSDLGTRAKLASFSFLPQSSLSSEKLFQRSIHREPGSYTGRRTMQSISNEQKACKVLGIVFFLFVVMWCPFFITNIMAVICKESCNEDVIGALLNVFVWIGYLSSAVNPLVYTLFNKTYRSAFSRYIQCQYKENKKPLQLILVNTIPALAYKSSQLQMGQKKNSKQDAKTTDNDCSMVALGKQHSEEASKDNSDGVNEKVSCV
Chain of 5-hydroxytryptamine receptor 1E (P28566 whole entry): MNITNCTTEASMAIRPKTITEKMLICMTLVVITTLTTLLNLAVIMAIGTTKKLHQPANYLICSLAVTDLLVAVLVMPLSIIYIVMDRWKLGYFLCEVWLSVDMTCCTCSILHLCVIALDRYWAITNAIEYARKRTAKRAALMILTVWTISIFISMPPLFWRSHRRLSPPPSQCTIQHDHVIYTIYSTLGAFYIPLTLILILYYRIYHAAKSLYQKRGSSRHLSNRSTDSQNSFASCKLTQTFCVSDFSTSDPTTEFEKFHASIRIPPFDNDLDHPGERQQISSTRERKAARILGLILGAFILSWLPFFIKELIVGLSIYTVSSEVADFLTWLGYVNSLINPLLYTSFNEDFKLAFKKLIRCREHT
Chain of 5-hydroxytryptamine receptor 7 (P34969 whole entry): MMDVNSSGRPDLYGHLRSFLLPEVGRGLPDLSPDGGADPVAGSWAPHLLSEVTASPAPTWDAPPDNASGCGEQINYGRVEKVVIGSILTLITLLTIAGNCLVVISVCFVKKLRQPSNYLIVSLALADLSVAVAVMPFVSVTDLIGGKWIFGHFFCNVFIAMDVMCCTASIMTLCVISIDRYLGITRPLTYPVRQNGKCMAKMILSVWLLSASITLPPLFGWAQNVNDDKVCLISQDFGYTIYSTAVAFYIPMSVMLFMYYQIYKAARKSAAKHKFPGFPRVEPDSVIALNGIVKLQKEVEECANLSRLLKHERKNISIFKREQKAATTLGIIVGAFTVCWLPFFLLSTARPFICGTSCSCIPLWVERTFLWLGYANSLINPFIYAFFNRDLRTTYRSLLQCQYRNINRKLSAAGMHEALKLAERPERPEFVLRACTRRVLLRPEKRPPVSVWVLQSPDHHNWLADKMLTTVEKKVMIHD
Chain of 5-hydroxytryptamine receptor 1D (P28221 whole entry): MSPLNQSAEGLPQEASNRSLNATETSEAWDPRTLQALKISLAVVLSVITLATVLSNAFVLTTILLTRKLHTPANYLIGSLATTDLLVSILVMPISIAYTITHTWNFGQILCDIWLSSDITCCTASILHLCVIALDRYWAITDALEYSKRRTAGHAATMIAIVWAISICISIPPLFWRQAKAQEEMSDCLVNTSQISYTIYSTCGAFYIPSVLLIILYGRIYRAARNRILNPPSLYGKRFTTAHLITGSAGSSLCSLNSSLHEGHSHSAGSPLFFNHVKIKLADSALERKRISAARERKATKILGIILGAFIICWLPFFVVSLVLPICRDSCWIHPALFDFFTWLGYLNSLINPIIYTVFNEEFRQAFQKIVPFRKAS

For O=C(/C=C/c1ccccc1)N(Cc1ccc(-c2ccc(CNCc3ccc4c(c3)OCO4)cc2)cc1)Cc1cccnc1, the Ki [1] was 1000 nM.
CN(C)CCN(Cc1ccc(-c2ccc(CNCCc3ccccc3)cc2)cc1)C(=O)c1ccccc1 was tested, and the Ki [1] was 631 nM.
For CN(C)CCN(Cc1ccc(-c2ccc(CNCCc3ccccc3)cc2)cc1)C(=O)CCC1CCCC1, the Ki (D(3) dopamine receptor) was 631 nM, the Ki (D(2) dopamine receptor) was 1260 nM and the Ki [2] was 3980 nM. It also gave a Ki [3] of 794 nM, a Ki [4] greater than 10000 nM and a Ki [5] of 1000 nM. The Ki [6] was 316 nM, the Ki [7] was 398 nM and the Ki [8] was 398 nM. The Ki [1] was 6.31 nM, the Ki [9] was 3980 nM and the Ki [10] was greater than 10000 nM. The Ki (D(4) dopamine receptor) was 794 nM, the Ki [11] was 316 nM and the Ki [12] was 501 nM.
Work on CN(C)CCN(Cc1ccc(-c2ccc(CNCCc3ccccn3)cc2)cc1)C(=O)CCC1CCCC1 yielded a Ki [1] of 31.6 nM.
COc1cccc(CCN(Cc2ccc(-c3ccc(CNCCc4ccccc4)cc3)cc2)C(=O)/C=C/c2ccccc2)c1 gave a Ki [1] of 501 nM.
Compound CN(C)CCN(Cc1ccc(-c2ccc(CNCCc3ccccc3)cc2)cc1)S(=O)(=O)/C=C/c1ccccc1 has a Ki [1] of 251 nM.
CN(C)CCN(Cc1ccc(-c2ccc(CNCCOc3ccccc3)cc2)cc1)C(=O)CCC1CCCC1 showed a Ki [1] of 79.4 nM.
Compound O=C(CCC1CCCC1)N(Cc1ccc(-c2ccc(CNCCc3ccccc3)cc2)cc1)CC1CCCCN1 (stereo unspecified) has a Ki [1] of 25.1 nM.
Compound CN(C)CCN(Cc1ccc(-c2ccc(CN)cc2)cc1)C(=O)CCC1CCCC1 has a Ki [1] of 3160 nM.
For CN(C)CCN(Cc1ccc(-c2ccc(CNCCc3ccccc3)cc2)nc1)C(=O)CCC1CCCC1, the Ki [1] was 31.6 nM.
COCCNCc1ccc(-c2ccc(CN(Cc3cccnc3)C(=O)/C=C/c3ccccc3)cc2)cc1 gave a Ki [1] of 6310 nM.
CN(C)CCN(Cc1ccc(-c2ccc(CNCCc3ccccc3)cn2)cc1)C(=O)/C=C/c1ccccc1 gave a Ki [1] of 5.01 nM.
